Source: patent publication US20150283259A1, “DRUG-PROTEIN CONJUGATES” (priority 2012, published 2015)

Assays:
[1] = system: HER2-negative MCF-7 cells; assay: In vitro cell viability assay (Cell-Titer Glo Luminescence), HER2-negative cells; type: cell-based; conditions: 96 h incubation, 200-0.1 nM free AHX-DM1, 3 fold dilutions
Description: (§1) The in vitro efficacy of the antibody and Fab conjugates prepared in Examples 3 and 4 respectively were determined by measuring the inhibitory effect on cell growth of HER-2 receptor over-expressing cancer cell lines.
(§2) Loss of tumour cell viability following treatment with cytotoxic drugs or ADCs in vitro can be measured by growing cell lines in the presence of increasing concentrations of drugs or ADCs and quantifying the loss of proliferation or metabolic activity using Cell-Titer Glo® Luminescence reagent (Promega Corp. Technical Bullettin TB288; Lewis Phillips G. D, Cancer Res 2008; 68:9280-9290). […]
(§3) HER2-positive SK-BR-3 and HER2-negative MCF-7 cells were trypsinised with 3 mL Trypsin EDTA for 5-15 min. […] Cells were counted using a Neubauer haemocytometer and adjusted to a cell density of 3×10^4/mL for MCF-7 and 5×10^4/mL for SK-BR-3 respectively. […]
(§4) The cell viability assay was carried out using the Cell-Titer Glo® Luminescence reagent, as described by the manufacturer's instructions, (Promega Corp. Technical Bulletin TB288; Lewis Phillips G. D, Cancer Res 2008; 68:9280-9290). […]
(§5) Luminescence was recorded using a plate reader (e.g. MD SpectramaxM3 plate reader), and data subsequently analysed using a four parameter non-linear regression model.
(§6) Viability is expressed as % of untreated cells. […]

[2] = system: HER2-positive SK-BR-3 cells; assay: In vitro cell viability assay (Cell-Titer Glo Luminescence), HER2-positive cells; type: cell-based; conditions: 96 h incubation, 40-0.018 nM, 2-fold dilutions, viability as % of untreated cells
Description: as §1, §2, §3, §4, §5, §6

COc1cc2cc(c1Cl)N(C)C(=O)C[C@H](OC(=O)[C@H](C)N(C)C(=O)CCCCCN)[C@]1(C)O[C@H]1[C@H](C)[C@@H]1C[C@@](O)(NC(=O)O1)[C@H](OC)/C=C/C=C(\C)C2 [AHX-DM1]
IC50 [1]: 36.3 nM
IC50 [2]: 3.4 nM
